Key:
[1] = system: P. aeruginosa ATCC 9027; experiment: micro-dilution broth method (MIC, MBC); assay type: cell-based, Pseudomonas aeruginosa
[2] = system: B. cereus ATCC 10876; experiment: micro-dilution broth method (MIC, MBC); assay type: cell-based, Bacillus cereus
[3] = system: V. parvula ATCC 10790; experiment: micro-dilution broth method (MIC, MBC); assay type: cell-based, Veillonella parvula
[4] = system: S. aureus ATCC 25923; experiment: micro-dilution broth method (MIC, MBC); assay type: cell-based, Staphylococcus aureus
[5] = system: M. luteus ATCC 10240; experiment: micro-dilution broth method (MIC, MBC); assay type: cell-based, Micrococcus luteus
[6] = system: P. acnes ATCC 11827; experiment: micro-dilution broth method (MIC, MBC); assay type: cell-based, Propionibacterium acnes
[7] = system: A. israeli ATCC 10049; experiment: micro-dilution broth method (MIC, MBC); assay type: cell-based, Actinomyces israelii
[8] = system: S. epidermidis ATCC 12228; experiment: micro-dilution broth method (MIC, MBC); assay type: cell-based, Staphylococcus epidermidis
[9] = system: C. perfringens ATCC 13124; experiment: microbe, parasite or virus in culture; assay type: cell-based, Clostridium perfringens
[10] = system: K. pneumoniae ATCC 13883; experiment: micro-dilution broth method (MIC, MBC); assay type: cell-based, Klebsiella pneumoniae
[11] = system: HepG2 cells; experiment: TPC assay (total protein content), 72 h exposure; assay type: cell-based, human; settings: Figure 6
Method: (§1) The human hepatoma (HepG2) and colorectal adenocarcinoma (Caco-2) cells were purchased from the American Type Culture Collection: ATCC HB-8065 and ATCC HTB-37, respectively. These cells were cultured in Minimum Essential Medium Eagle (MEME) (ATCC). The murine fibroblasts cell line (Balb/c 3T3 clone A31) (gift from the Department of Swine Diseases of the National Veterinary Research Institute in Pulawy) was cultured in Dulbecco’s Modified Eagle Medium (DMEM) (ATCC). The media were supplemented with 10% BCS (Balb/c 3T3), 10% FBS (HepG2), 20% FBS (Caco-2), 1% L-glutamine, 1% antibiotic solution. The cells were maintained in 75 cm^2 cell culture flasks (NUNC) in a humidified incubator at 37 °C in an atmosphere of 5% CO2. The medium was refreshed every two or three days, and the cells were trypsinized by 0.25% trypsin–0.02% EDTA after reaching 70–80% confluence. Single cell suspensions were prepared and adjusted to a density of 2 × 10^5 cell/mL^−1 (HepG2), 1 × 10^5 cell/mL^−1 (Caco-2) and 5 × 10^4 cell/mL^−1 (Balb/c 3T3). The cell suspension was transferred to 96-well plates (100 µL/well) and incubated for 24 h before the exposure to the studied compounds. Stock solutions of ligands and metal complexes were prepared in sterile water and diluted with culture medium to obtain a concentration range from 0.1 to 10 µM. The final concentration of sterile water was 0.1% in the medium. […] As a negative control, cultured cells were grown in the absence of studied compounds. Each concentration was tested in six replicates in three independent experiments. Cytotoxicity was assessed after 72 h of exposure of the cells to compounds. The medium was not changed during the incubation time.
This assay is based upon staining the total cellular protein (proliferation). After the incubation, the medium containing the drug was removed, and 100 µL Coomassie brilliant blue R-250 dye was added to each well. The plate was shaken for 10 min. Then, the stain was removed and the cells were rinsed twice with 100 µL of washing solution (glacial acetic acid/ethanol/water, 5:10:85, v:v:v). After that, 100 µL of the desorbing solution (1 M potassium acetate) was added, and plates were shaken again for 10 min. The absorbance was measured at 595 nm in a microplate reader Synergy HTX multi-mode reader (BioTek® Instruments Inc., Winooski, VT, USA) using a blank as a reference. Cytotoxicity was expressed as a percentage of the negative control.
The study was performed in three independent experiments. The obtained results are presented as mean values ± SD (standard deviation). The assessment of the cytotoxicity data used a one-way analysis of variance (ANOVA) followed by Dunnett’s post hoc test, which was applied to determine significance relative to the negative control.

[12] = system: HepG2 cells; experiment: MTT assay (mitochondrial activity), 72 h exposure; assay type: cell-based, human; settings: Figure 6
Method: as §1
The metabolic activity of living cells was assessed by the measurement of the activity of dehydrogenases. […] The plate was shaken for 15 min at room temperature and transferred to a microplate reader Synergy HTX multi-mode reader (BioTek® Instruments Inc., Winooski, VT, USA) to measure the absorbance at 570 nm, using a blank as a reference. Cytotoxicity was expressed as a percentage of the negative control. […]

[13] = system: C. jejunii ATCC 33291; experiment: micro-dilution broth method (MIC, MBC); assay type: cell-based, Campylobacter jejunii
[14] = system: B. fragilis ATCC 10240; experiment: micro-dilution broth method (MIC, MBC); assay type: cell-based, Bacteroides fragilis
[15] = P. aeruginosa ATCC 9027, value in brackets
[16] = B. cereus ATCC 10876, value in brackets
[17] = V. parvula ATCC 10790, value in brackets
[18] = S. aureus ATCC 25923, value in brackets
[19] = M. luteus ATCC 10240, value in brackets
[20] = P. acnes ATCC 11827, value in brackets
[21] = A. israeli ATCC 10049, value in brackets
[22] = S. epidermidis ATCC 12228, value in brackets
[23] = C. perfringens ATCC 13124, value in brackets
[24] = K. pneumoniae ATCC 13883, value in brackets
[25] = C. jejunii ATCC 33291, value in brackets
[26] = B. fragilis ATCC 10240, value in brackets

Cc1ncc([N+](=O)[O-])n1CCO.Cc1ncc([N+](=O)[O-])n1CCO.Cc1ncc([N+](=O)[O-])n1CCO.Cc1ncc([N+](=O)[O-])n1CCO.O=S(=O)([O-])[O-].[Ag+].[Ag+] [[Ag(MTZ)2]2SO4]
MBC ([1]; P. aeruginosa ATCC 9027): 15.6 mg/L
MIC ([1]; P. aeruginosa ATCC 9027): 7.8 mg/L
MBC [1, 15]: 0.014 µM/mL
MIC [1, 15]: 0.008 µM/mL
MIC ([2]; B. cereus ATCC 10876): 62.5 mg/L
MBC [2, 16]: 0.12 µM/mL
MIC [2, 16]: 0.06 µM/mL
MBC ([3]; V. parvula ATCC 10790): 3.9 mg/L
MIC ([3]; V. parvula ATCC 10790): 3.9 mg/L
MBC [3, 17]: 0.004 µM/mL
MIC [3, 17]: 0.004 µM/mL
MBC ([4]; S. aureus ATCC 25923): 15.6 mg/L
MIC ([4]; S. aureus ATCC 25923): 15.6 mg/L
MBC [4, 18]: 0.014 µM/mL
MIC [4, 18]: 0.014 µM/mL
MIC ([5]; M. luteus ATCC 10240): 7.8 mg/L
MBC [5, 19]: 0.12 µM/mL
MIC [5, 19]: 0.007 µM/mL
MBC ([6]; P. acnes ATCC 11827): 500 mg/L
MBC [6, 20]: 0.46 µM/mL
MIC [6, 20]: 0.12 µM/mL
MBC ([7]; A. israeli ATCC 10049): 15.6 mg/L
MIC ([7]; A. israeli ATCC 10049): 7.8 mg/L
MBC [7, 21]: 0.014 µM/mL
MIC [7, 21]: 0.007 µM/mL
MBC ([8]; S. epidermidis ATCC 12228): 15.6 mg/L
MIC ([8]; S. epidermidis ATCC 12228): 7.8 mg/L
MBC [8, 22]: 0.014 µM/mL
MIC [8, 22]: 0.007 µM/mL
MBC ([9]; C. perfringens ATCC 13124): 3.9 mg/L
MIC ([9]; C. perfringens ATCC 13124): 1.95 mg/L
MBC [9, 23]: 0.004 µM/mL
MIC [9, 23]: 0.002 µM/mL
MBC ([10]; K. pneumoniae ATCC 13883): 31.3 mg/L
MIC ([10]; K. pneumoniae ATCC 13883): 15.6 mg/L
MBC [10, 24]: 0.03 µM/mL
MIC [10, 24]: 0.014 µM/mL
lowest concentration with significant (p ≤ 0.05) effect [11]: 5.0 µM
lowest concentration with significant (p ≤ 0.05) effect [12]: 5.0 µM
MBC ([13]; C. jejunii ATCC 33291): 500 mg/L
MBC [13, 25]: 0.46 µM/mL
MIC [13, 25]: 0.23 µM/mL
MIC ([13]; C. jejunii ATCC 33291, listed as [Ag(MTZ)2]2SO4·5H2O): 250 mg/L
MBC ([14]; B. fragilis ATCC 10240): 0.98 mg/L
MIC ([14]; B. fragilis ATCC 10240): 0.24 mg/L
MBC [14, 26]: 0.0009 µM/mL
MIC [14, 26]: 0.0002 µM/mL
